This passage reports remaining binding results from patent US12281080B2, “Quinoline-based compounds and methods of inhibiting CDK8/19” (University of South Carolina, priority 2018, dated 2025).

Assay in all cases: KINOMEscan scanMAX
What all share (assay type): binding
What all share (details): 2000 nM; read-out: Percent Control

Assay [1] concerns the target MAP3K15 (Homo sapiens (Human), UniProt Q6ZN16).
In assay [2] the target is CDC2L1 (CDK11B) (Homo sapiens (Human), UniProt P21127).
Assay [3] concerns the target RSK3(Kin.Dom.2-C-terminal) (RPS6KA2) (Homo sapiens (Human), UniProt Q15349).
The target of assay [4] is EGFR(L861Q) (Homo sapiens (Human), UniProt P00533, L861Q).
Assay [5] addresses CDK3 (Homo sapiens (Human), UniProt Q00526).
The target of assay [6] is EGFR(S752-1759del) (Homo sapiens (Human), UniProt P00533, DEL752-759).
The target in assay [7] is CSNK1G2 (Homo sapiens (Human), UniProt P78368).

Each structure is given as a SMILES string.

EGFR(S752-1759del), sequence (P00533 other isoform, or with tags, fused parts or gaps del 1-668/del 752-759/del 1012-1210 limits assumed): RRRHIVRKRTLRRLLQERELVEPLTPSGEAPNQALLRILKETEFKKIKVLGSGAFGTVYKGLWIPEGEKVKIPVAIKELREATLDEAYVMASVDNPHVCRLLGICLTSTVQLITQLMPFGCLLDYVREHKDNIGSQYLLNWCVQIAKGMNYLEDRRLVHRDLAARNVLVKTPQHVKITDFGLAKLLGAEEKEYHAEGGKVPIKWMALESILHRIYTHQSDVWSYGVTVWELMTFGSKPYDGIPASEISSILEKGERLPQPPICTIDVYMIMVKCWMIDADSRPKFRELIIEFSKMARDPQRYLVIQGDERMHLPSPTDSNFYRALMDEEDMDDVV
CDK3, sequence (Q00526 whole entry): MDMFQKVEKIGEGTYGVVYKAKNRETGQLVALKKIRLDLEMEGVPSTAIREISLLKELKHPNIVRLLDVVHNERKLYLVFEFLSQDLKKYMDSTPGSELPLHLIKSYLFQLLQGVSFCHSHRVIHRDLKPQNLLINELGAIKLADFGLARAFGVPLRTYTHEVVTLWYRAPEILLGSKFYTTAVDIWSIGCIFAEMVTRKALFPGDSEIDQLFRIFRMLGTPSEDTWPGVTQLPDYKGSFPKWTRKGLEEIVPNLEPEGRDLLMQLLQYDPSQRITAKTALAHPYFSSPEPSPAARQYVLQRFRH
MAP3K15, sequence (Q6ZN16 whole entry): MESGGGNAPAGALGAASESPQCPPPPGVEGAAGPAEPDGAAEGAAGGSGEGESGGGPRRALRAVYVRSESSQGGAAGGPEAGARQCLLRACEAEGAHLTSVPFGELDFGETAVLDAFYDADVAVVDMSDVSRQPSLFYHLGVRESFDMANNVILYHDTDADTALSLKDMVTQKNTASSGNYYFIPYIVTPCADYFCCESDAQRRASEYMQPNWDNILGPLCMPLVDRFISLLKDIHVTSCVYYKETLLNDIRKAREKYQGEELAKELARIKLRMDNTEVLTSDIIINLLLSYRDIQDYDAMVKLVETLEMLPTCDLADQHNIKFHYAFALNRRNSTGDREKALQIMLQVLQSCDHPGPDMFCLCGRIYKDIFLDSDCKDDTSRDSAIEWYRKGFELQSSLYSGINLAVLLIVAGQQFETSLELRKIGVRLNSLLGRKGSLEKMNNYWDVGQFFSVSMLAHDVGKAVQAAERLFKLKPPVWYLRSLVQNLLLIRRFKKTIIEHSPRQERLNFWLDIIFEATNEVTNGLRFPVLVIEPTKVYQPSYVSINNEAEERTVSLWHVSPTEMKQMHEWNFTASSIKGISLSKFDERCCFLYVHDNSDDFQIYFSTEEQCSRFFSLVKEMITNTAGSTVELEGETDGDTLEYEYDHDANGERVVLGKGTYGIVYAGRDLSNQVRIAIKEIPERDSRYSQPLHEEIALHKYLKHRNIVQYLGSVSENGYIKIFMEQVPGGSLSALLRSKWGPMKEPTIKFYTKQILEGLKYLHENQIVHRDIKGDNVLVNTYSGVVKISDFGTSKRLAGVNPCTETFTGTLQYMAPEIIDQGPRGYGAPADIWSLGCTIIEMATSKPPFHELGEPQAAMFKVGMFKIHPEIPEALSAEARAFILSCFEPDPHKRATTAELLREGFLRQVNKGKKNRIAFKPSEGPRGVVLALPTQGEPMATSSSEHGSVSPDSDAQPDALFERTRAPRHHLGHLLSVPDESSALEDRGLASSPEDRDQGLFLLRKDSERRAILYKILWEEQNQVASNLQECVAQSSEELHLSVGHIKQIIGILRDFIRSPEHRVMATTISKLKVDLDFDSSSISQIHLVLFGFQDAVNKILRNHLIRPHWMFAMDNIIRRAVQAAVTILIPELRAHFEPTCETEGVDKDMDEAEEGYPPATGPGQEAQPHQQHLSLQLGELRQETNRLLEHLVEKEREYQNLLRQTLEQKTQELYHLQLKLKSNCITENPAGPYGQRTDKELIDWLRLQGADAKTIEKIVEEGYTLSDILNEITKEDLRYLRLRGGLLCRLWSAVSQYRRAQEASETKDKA
EGFR(L861Q), sequence (P00533 25-1210 L861Q): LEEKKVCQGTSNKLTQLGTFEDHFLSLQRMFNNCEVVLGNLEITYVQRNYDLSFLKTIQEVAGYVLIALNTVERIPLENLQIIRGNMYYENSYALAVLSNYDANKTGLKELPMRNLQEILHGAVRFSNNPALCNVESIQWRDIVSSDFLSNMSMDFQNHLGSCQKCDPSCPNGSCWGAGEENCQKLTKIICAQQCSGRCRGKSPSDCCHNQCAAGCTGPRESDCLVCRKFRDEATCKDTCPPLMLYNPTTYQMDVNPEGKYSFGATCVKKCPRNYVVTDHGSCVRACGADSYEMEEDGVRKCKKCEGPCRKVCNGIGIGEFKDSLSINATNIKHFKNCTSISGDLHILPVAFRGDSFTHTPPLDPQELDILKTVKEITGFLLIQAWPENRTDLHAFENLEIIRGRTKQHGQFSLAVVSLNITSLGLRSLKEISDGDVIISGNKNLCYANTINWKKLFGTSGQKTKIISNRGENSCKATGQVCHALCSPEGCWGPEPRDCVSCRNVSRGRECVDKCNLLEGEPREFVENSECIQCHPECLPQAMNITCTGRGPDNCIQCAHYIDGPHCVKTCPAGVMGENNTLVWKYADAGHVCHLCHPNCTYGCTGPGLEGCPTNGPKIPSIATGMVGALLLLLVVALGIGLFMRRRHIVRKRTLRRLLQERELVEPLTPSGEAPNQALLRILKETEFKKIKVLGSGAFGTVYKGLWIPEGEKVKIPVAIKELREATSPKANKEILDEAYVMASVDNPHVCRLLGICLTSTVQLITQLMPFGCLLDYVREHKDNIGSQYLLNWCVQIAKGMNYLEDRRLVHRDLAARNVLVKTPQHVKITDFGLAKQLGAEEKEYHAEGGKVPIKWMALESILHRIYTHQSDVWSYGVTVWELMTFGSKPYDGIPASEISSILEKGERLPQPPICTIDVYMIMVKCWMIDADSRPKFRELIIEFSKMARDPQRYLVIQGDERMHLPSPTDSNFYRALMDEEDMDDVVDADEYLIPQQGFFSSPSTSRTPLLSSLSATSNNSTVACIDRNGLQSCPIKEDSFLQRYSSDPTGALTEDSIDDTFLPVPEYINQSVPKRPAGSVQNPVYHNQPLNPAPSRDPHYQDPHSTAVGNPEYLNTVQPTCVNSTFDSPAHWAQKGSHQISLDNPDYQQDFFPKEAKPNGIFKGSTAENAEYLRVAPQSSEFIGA
CSNK1G2, sequence (P78368 whole entry): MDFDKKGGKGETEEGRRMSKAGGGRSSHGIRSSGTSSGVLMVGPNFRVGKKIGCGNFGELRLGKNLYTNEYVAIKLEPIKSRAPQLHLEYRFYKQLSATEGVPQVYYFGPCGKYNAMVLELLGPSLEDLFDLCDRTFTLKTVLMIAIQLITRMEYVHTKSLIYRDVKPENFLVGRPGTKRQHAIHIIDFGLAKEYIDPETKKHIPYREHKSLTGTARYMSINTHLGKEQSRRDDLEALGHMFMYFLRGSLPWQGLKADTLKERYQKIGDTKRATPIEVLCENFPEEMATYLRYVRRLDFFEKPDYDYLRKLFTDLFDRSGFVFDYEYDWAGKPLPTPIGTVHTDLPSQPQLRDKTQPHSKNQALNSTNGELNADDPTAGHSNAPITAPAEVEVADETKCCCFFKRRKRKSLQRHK
RSK3(Kin.Dom.2-C-terminal) (RPS6KA2), sequence (Q15349 415-672): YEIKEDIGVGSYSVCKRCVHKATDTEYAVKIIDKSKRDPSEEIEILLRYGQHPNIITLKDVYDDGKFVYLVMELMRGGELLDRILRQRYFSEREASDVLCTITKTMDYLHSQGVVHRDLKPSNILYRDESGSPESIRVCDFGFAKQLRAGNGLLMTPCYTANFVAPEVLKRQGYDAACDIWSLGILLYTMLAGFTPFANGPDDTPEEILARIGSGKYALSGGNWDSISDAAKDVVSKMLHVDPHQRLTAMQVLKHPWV
CDC2L1 (CDK11B), sequence (P21127 whole entry): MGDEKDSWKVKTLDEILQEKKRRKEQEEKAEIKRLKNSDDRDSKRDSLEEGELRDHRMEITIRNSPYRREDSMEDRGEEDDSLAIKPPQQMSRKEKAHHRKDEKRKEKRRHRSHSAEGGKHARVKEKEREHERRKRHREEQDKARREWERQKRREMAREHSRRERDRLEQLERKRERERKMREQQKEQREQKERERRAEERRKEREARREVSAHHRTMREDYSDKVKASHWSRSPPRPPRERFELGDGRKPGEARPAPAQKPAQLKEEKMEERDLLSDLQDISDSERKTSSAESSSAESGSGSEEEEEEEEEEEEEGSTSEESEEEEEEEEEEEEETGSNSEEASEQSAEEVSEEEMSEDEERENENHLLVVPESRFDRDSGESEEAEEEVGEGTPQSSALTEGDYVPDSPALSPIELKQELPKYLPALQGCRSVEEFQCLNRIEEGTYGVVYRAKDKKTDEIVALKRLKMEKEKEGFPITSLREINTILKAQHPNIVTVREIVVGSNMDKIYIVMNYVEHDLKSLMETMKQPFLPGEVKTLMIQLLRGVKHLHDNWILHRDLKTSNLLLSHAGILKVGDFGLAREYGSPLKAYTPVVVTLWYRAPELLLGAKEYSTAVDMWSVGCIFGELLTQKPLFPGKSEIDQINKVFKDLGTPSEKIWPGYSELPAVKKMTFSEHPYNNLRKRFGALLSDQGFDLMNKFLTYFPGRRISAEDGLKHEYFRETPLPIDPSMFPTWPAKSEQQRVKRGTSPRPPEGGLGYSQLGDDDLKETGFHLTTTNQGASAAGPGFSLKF

Turning to `CN1CCN(C(=O)c2ccc3cc(CCNc4ccnc5ccc(C#N)cc45)ccc3c2)CC1` [compound 6148, 4-((2-(6-(4-methylpiperazine-1-carbonyl)naphthalen-2-yl)ethyl)amino)quinoline-6-carbonitrile], the remaining binding at 2 µM came out at 83% in assay [1]; 96% in assay [2]; 91% in assay [3]; 64% in assay [4]; 86% in assay [5]; 99% in assay [6]. Also, in assay [7], the remaining binding at 2 µM was determined as 89%.
